Several values for one entry are separate records, joined by “and”; a condition that tells them apart may be missing. Equal values may be shown once.
Tests used:
S. aureus Mu50 [1] = assay: MIC reduction assay (antibiotic adjuvant), S. aureus Mu50; format: cell-based, Staphylococcus aureus; set-up: key: A = MIC of antibiotic alone / MIC with compound;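 note: compound at no more than one quarter of its own MIC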
Text: The adjuvant properties of compounds 14–16 in S. aureus clinical isolates were next tested in combination with oxacillin and the penicillinase-susceptible β-lactam antibiotic, ampicillin. The second β-lactam antibiotic was chosen based on its vulnerability to enzymatic hydrolysis, another important resistance mechanism in S. aureus against penicillin. Therefore, the results of the MIC reduction assay obtained on the activity of arylideneimidazolones combined with oxacillin and ampicillin, respectively, might provide further insights into the possible mechanism of action of the compounds. Complete results are presented in Supplementary (Tables S4 and S5), while condensed in Figure 6, in the case of desired activity noted. […] One possible explanation for the lack of adjuvant activity of compounds in some of the strains selected for this study might be that these strains express PBP2a only when induced by the antibiotic, while others, for which potentiating activity of compounds was observed, produce this protein in high levels straight away.
Determination of MIC values, i.e., intrinsic antibacterial activity, of products and antibiotics (oxacillin, ampicillin, vancomycin, ciprofloxacin, and erythromycin) in the presence and absence of compounds tested was conducted by the use of a standard 2-fold microdilution method in cation-adjusted Mueller Hinton broth following the Clinical and Laboratory Standards Institute (CLSI) guidelines. The MIC values were detected using an Infinite M200 pro Tecan microplate reader (Tecan® France, SA-Lyon, France). MIC determinations were conducted in 96-well microtiter plates and repeated 3–4 times.
Initially, MICs of a series of imidazolone derivatives were assessed against susceptible (reference) and MDR strains of staphylococci. Next, MIC values of the aforementioned antibiotics were determined in the absence and presence of imidazolone derivatives to assess the chemosensitizing effect of these compounds. […] 5-arylideneimidazolones and 5-arylidenethiazolones, which precipitated after addition to bacterial suspension in MH II medium, were tested at the highest concentrations at which precipitation was not observed. […] Antibacterial activity of compounds and antibiotics ampicillin, vancomycin, ciprofloxacin, and erythromycin was recorded as the lowest concentration of molecules able to inhibit bacterial growth after 18 h incubation at 37 °C. The incubation of bacterial strains exposed to oxacillin paired with compounds tested was conducted at 35 °C and extended to 24 h due to frequent occurrence of heterogeneity among MRSA strains. The results are presented as activity gain (A) parameter which was calculated as ratio of MIC of a certain antibiotic (MICAnt) to its MICAnt+Comp, observed in combination with a tested compound (7, 12–16, 19, or 20; Equation (1)). (1) A=(MICAnt/MICAnt+Comp)

S. aureus Mu50 [2] = assay: MIC of compounds, S. aureus Mu50; format: cell-based; settings: Staphylococcus aureus; Mu50 (VISA)
Experimental: Compounds 14–16 were tested further for their adjuvant-like effect with a set of ten additional S. aureus isolates. Firstly, MIC values of the molecules were evaluated in two clinical MSSA isolates (MM-O058, MM-N072), seven MRSA (USA300 LAC, 5328, LG-N017, MM-O021, R45-CC45, R46-CC22, COL) and one VISA strain (Mu50). Detailed results are presented in the Supplementary section (Table S3). […]
Initially, MICs of a series of imidazolone derivatives were assessed against susceptible (reference) and MDR strains of staphylococci. Next, MIC values of the aforementioned antibiotics were determined in the absence and presence of imidazolone derivatives to assess the chemosensitizing effect of these compounds. […] Antibacterial activity of compounds and antibiotics ampicillin, vancomycin, ciprofloxacin, and erythromycin was recorded as the lowest concentration of molecules able to inhibit bacterial growth after 18 h incubation at 37 °C. […] The results are presented as activity gain (A) parameter which was calculated as ratio of MIC of a certain antibiotic (MICAnt) to its MICAnt+Comp, observed in combination with a tested compound (7, 12–16, 19, or 20; Equation (1)). […]

[3] = Stability in acidic and basic conditions (TLC); format: physicochemical; settings: for Number of TLC spots: 1 = stable
Experimental: Compounds 9–12, 15, and 19 were also tested for their stability in acidic and basic conditions. This assay was carried out for 48 h and samples were taken at six-time intervals (10 min, 1 h, 2 h, 3 h, 24 h, 48 h). Stability of the compounds was determined using the TLC method. […] In basic conditions, only compounds 10 and 15 were stable for 24 h. […] Results with details, including time of degradation of products obtained, are presented in the Supplementary (Tables S19 and S20). […]
VI. Stability in different pH conditions
Stability of chosen compounds (9-12, 15, and 19) were determined using the TLC method. Assays were performed in acidic and basic conditions and were carried out for 48 h. Samples were taken at six-time intervals (10 min., 1 h, 2 h, 3 h, 24 h, 48 h). […]
of spots observed on TLC, where 1 indicate that compound is stable (only TLC spot for proper compound was observed). Higher values point out how many products of degradation was observed, which can be calculating by subtracting one from number of spots.
Table S19. Results of chosen compounds (9-12, 15, 19) stability in acidic conditions.
Compound Number of TLC spots in defined time
Table S20. Results of chosen compounds (9-12, 15, 19) stability in basic conditions.

[4] = Water solubility (UV spectroscopy); format: physicochemical
Text: Six representatives of 5-arylideneimidazolones (9–12, 15, 19) were chosen for the determination of water solubility. UV spectroscopy was used for the estimation of concentrations of compounds according to the method described earlier. Acquired UV absorbance, calculated means, and standard deviations for tested compounds are presented in Supplementary Table S18. Solubility results, presented in Table 6, point out that compounds from the same group (A or B, Table 1 and Table 2) with the two-ring aromatic moiety are more soluble than compounds with the fluorene motive (Group A: 9, 10, 11 vs. 12; Group B: 15 vs. 19). […] The most soluble of tested compounds was compound 15, which could be dissolved in water at a concentration of up to 205.502 mM/L.
Water solubility was obtained using UV spectroscopy method. Absorbance of tested solutions of compounds 9-12, 15, and 19, respectively in suitable dilution, in three repetitions as well as calculated arithmetic means, solubility and standard deviations are presented in Table S18. the solubility results […]
Table S18. Results of absorbance used for estimation of water solubility of tested compounds (9-12, 15, 19).
Abbreviations: A1, A2,and A3, UV absorbance in first, second, and third repetition; Amean, arithmetic mean of absorbance from three repetitions; s, standard deviation for absorbance; S, water solubility; SD – standard deviation for solubility. […]

CYP3A4 = CYP3A4 (Homo sapiens, UniProt P08684); assay: Luminescent CYP3A4 P450-Glo assay
Experimental: The luminescent CYP3A4 P450-Glo™ assay was carried out according to a protocol described previously (Promega, Madison, WI, USA). […] Performance of enzymatic reaction was carried out in white polystyrene, flat-bottom Nunc™ MicroWell™ 96-Well Microplate (Thermo Scientific Waltham, MA, USA) and the result was measured with a microplate reader EnSpire in luminescence mode (PerkinElmer, Waltham, MA USA). IC50 values were calculated using GraphPad Prism™ software (version 5.01, San Diego, CA, USA). Compounds 15 and 19 were tested at concentrations from 0.01 μM to 25 μM.

CYP3A4, sequence (P08684 whole entry): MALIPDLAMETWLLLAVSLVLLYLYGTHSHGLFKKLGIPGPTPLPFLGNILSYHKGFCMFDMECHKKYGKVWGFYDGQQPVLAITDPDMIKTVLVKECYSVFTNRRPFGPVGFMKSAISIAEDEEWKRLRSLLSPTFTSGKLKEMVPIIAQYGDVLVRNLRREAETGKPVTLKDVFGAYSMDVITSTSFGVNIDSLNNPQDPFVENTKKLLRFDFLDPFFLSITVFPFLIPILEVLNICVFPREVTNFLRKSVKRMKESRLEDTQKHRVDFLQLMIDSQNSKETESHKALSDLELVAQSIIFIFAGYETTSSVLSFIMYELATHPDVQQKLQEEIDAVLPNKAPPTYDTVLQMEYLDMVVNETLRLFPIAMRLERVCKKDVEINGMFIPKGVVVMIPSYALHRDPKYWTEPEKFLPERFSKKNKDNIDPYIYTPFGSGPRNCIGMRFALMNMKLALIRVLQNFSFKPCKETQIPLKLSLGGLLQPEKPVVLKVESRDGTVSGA

| SMILES | A (activity gain) (S. aureus Mu50 [1]; ampicillin) | A (activity gain) (S. aureus Mu50 [1]; ciprofloxacin) | A (activity gain) (S. aureus Mu50 [1]; erythromycin) | A (activity gain) (S. aureus Mu50 [1]; vancomycin) | MIC (S. aureus Mu50 [2]) [µM] | Number of TLC spots ([3]; acidic conditions, 10 min) | Number of TLC spots ([3]; acidic conditions, 1 h) | Number of TLC spots ([3]; acidic conditions, 2 h) | Number of TLC spots ([3]; acidic conditions, 3 h) | Number of TLC spots ([3]; acidic conditions, 24 h) | Number of TLC spots ([3]; acidic conditions, 48 h) | Number of TLC spots ([3]; basic conditions, 10 min) | Number of TLC spots ([3]; basic conditions, 1 h) | Number of TLC spots ([3]; basic conditions, 2 h) | Number of TLC spots ([3]; basic conditions, 3 h) | Number of TLC spots ([3]; basic conditions, 24 h) | Number of TLC spots ([3]; basic conditions, 48 h) | solubility [4] | IC50 (CYP3A4) [µM] | further results |
| --- | --- | --- | --- | --- | --- | --- | --- | --- | --- | --- | --- | --- | --- | --- | --- | --- | --- | --- | --- | --- |
| NC1=N/C(=C\c2ccc(-c3ccccc3)cc2)C(=O)N1CCN1CCOCC1 [Compound 14] | 1 | 1 | 1 | 1 | ≥ 500 |  |  |  |  |  |  |  |  |  |  |  |  |  |  |  |
| NC1=N/C(=C\c2ccc(-c3ccccc3)cc2)C(=O)N1CCCN1CCOCC1 [Compound 15] | 2 | 1 | 1 | 1 | 250 | 2 | 2 | 2 | 2 | 2 | 2 | 1 | 1 | 1 | 1 | 1 | 2 | 87600 µg/mL and 206000 µM | > 25 | time stable ([3]; basic conditions): 24 h; inhibition at 25 µM (CYP3A4; human): < 50% |
| NC1=N/C(=C\c2cccc(Oc3ccccc3)c2)C(=O)N1CCCN1CCOCC1 [Compound 16] | 2 | 1 | 1 | 1 |  |  |  |  |  |  |  |  |  |  |  |  |  |  |  |  |
| NC1=N/C(=C\c2ccc3c(c2)Cc2ccccc2-3)C(=O)N1CCCN1CCOCC1 [Compound 19] |  |  |  |  |  | 1 | 1 | 1 | 2 | 2 | 3 | 4 | 4 | 4 | 4 | 4 | 4 | 8530 µg/mL and 19500 µM | 24.9 |  |

— publication PMC7922564, “Molecular Insights into an Antibiotic Enhancer Action of New Morpholine-Containing 5-Arylideneimidazolones in the Fight against MDR Bacteria” (International Journal of Molecular Sciences, 2021)
